Activity calls are given as the source filed them.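 Rule for the calls: active = fitted curve reaches a 40% rise in fluorescent cells at or below the top valid dose; inactive = opposite-direction effect, or the rest.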 Some results are limits rather than exact numbers.

Tested on in one assay: not listed separately
Kind of assay: autofluorescent compounds in non-GFP fibroblasts, dose response, artefact control for X-chromosome reactivation project, imaging, mTEFS fibroblasts, cherry-pick (AID 743396).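 For % fluorescent cells increase: raw share of Hoechst-counted cells scored GFP positive without control normalization.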 Particulars: mTEFS fibroblasts autofluorescence, GFP-channel imaging, 3 days; at 19.5 µM (top of the series).
Consider `C=CCn1c(O)c(C(C)=NCc2ccc3c(c2)OCO3)c(=O)[nH]c1=O`, for which the % fluorescent cells increase is 0.135% (inactive).

The same assay, now with this note: mTEFS fibroblasts autofluorescence, GFP-channel imaging, 3 days; at 19.5 µM (top of the series); cells pretreated with 5-aza-dC.
As for `COc1ccc(NC(=O)C(C)N2C(=O)c3ccccc3C2=O)c(OC)c1` (stereo not given), the % fluorescent cells increase is 0.081% (inactive). The same measure, in the same setting: for `COc1ccc(S(=O)(=O)N(C)C[C@H]2Oc3ccc(NS(=O)(=O)c4ccc(F)cc4)cc3CC(=O)N([C@@H](C)CO)C[C@@H]2C)cc1` the value was 0% (inactive); for `C/C=C/Cn1c(SCCCc2ccccc2)nc2c1c(=O)[nH]c(=O)n2C`, -0.004% (inactive). The same measure, in the same setting: with `NC(=NC(=O)c1cccc(C(F)(F)F)c1)c1ccc(C(F)(F)F)cn1` the figure was 0% (inactive). Still for that read-out and setting: with `Cc1ccc2[nH]c(C(=O)O)c(NC(=O)[C@@H]3C[C@@H]3c3ccccc3)c2c1` the figure was 0.266% (inactive). `COC(=O)c1ccc(CNC(=O)COC(=O)c2cc(Cl)ccc2O)cc1`: the % fluorescent cells increase is 0% (inactive). As for `COc1ccc2c3c(n(C)c2c1)[C@@H](CO)N(Cc1ccccc1OC)CC31CCN(C)CC1`, the % fluorescent cells increase is -0.158% (inactive). On the same count and under the same terms, with `CC(=O)Nc1ccc(N2Cc3ccccc3C2)cc1` the figure was 0.093% (inactive); with `C=CCN(CC(O)c1cccc([N+](=O)[O-])c1)C(C)CCc1ccccc1` (stereo not given), 1.4% (inactive).

For the compound `Cc1ccc(N(C)C(=O)C2CCN(S(=O)(=O)c3ccc4c(c3)oc(=O)n4C)CC2)cc1`, the % fluorescent cells increase is -0.007% (inactive). Same read-out and setting: for `CC(C)C#Cc1ccc([C@@H]2[C@@H](CO)N3C(=O)CN(C(=O)c4ccc5c(c4)OCO5)C[C@H]23)cc1` the value was -0.166% (inactive); for `Cc1cccc(CS(=O)(=O)Cc2ccc(C(=O)NCc3cccs3)o2)c1`, 0.029% (inactive). As for `C[C@H]1CCCCO[C@H](CN(C)S(=O)(=O)c2ccc(Cl)cc2)[C@@H](C)CN([C@@H](C)CO)C(=O)c2cc(NC(=O)Nc3ccccc3)ccc2O1`, the % fluorescent cells increase was 1.86% (inactive). On the same count and under the same terms, for `CCOCCCn1c(=NC(C)=O)c(C#N)cc2c(=O)n3cccc(C)c3nc21` the value was 0.498% (inactive); for `CCOC(=O)N1CCN(C(=O)Cn2ccc3c(OC)cccc3c2=O)CC1`, 0.012% (inactive). On the same count and under the same terms, with `COc1ccc(N2CCN(C(CNC(=O)c3ccc4c(c3)OCO4)c3ccco3)CC2)cc1` (stereo not given) the figure was 0% (inactive). On the same count and under the same terms, for `COc1ccc(COc2ccccc2C(=O)NCc2ccccc2)cc1F` the value was 0% (inactive); for `CCOC(=O)c1sc(Nc2ccc(Br)cc2)nc1C`, 1.37% (inactive). Consider `Cc1ccc(S(=O)(=O)Nc2cccc3c2O[C@H](CN(C)C(=O)Nc2cccc4ccccc24)[C@H](C)CN([C@H](C)CO)C3=O)cc1`, for which the % fluorescent cells increase is 0.048% (inactive). Same read-out and setting: with `CN(C)CCN(C(=O)c1ccc(S(=O)(=O)N(C)c2ccccc2)cc1)c1nc2cc3c(cc2s1)OCCO3` the figure was 0% (inactive). On the same count and under the same terms, for `O=C(CCn1nc(-c2ccc(Cl)cc2)c2ccccc2c1=O)NN1CCOCC1` the value was 0.116% (inactive); for `Cc1ccccc1NC(=O)c1c(C)[nH]c(=S)c(C#N)c1-c1ccc(Cl)cc1`, 0.031% (inactive); for `COc1ccc2c3c(n(C)c2c1)[C@@H](CO)N(C)CC31CN(C(=O)NC(C)C)C1`, -0.14% (inactive).

Staying with this assay, now noted: mTEFS fibroblasts autofluorescence, GFP-channel imaging, 3 days; at 21 µM (top of the series); cells pretreated with 5-aza-dC.
Regarding `Cc1cccc(CN(C)C[C@@H]2Oc3ncc(C#Cc4ccccc4)cc3C(=O)N([C@H](C)CO)C[C@@H]2C)c1`, the % fluorescent cells increase was 0% (inactive).

The next assay has as its system mTEFS fibroblasts autofluorescence, GFP-channel imaging, 3 days. The description is as above. Particulars: cells pretreated with 5-aza-dC.
For `COc1cc2c3nnc(-c4ccc(F)cc4)c-3cn(Cc3ccccc3F)c2cc1OC`, the AC40 was 2.46 µM.

In the case of `Nc1c(Br)cc2c3c(cccc13)-c1ccccc1-2`, the AC40 is > 19.5 µM (inactive). On the same count and under the same terms, for `COc1cc2c3nnc(-c4ccc(F)cc4)c-3cn(Cc3cccc(C)c3)c2cc1OC` the value was 3.63 µM; for `CCN(CC)c1ccc(/C=C(/C#N)C(=O)NCc2ccccc2)o1`, 5.55 µM; for `CCN1C(=O)[C@@H]2Cc3c([nH]c4ccccc34)C(c3cc(OC)c(OC)c(OC)c3)N2C1=S` (stereo not given in full), > 19.5 µM (inactive).

In the case of `Cc1cc(N/N=C/c2ccc([N+](=O)[O-])o2)nc2ccccc12`, the AC40 was 13.8 µM. Same read-out and setting: with `CCOC(=O)C1=C(O)/C(=C/c2cc(OC)c(O)c(OC)c2)SC1=Nc1ccc(OC)cc1` the figure was > 19.5 µM (inactive); with `C/C(=N\Nc1ncnc2sc(C)c(C)c12)c1ccccn1`, 1.55 µM; with `CCOC(=O)/C=c1\s/c(=C\c2ccc3cc(OC)ccc3c2)c(=O)n1CC(=O)NCc1ccc2c(c1)OCO2`, 4.43 µM. On the same count and under the same terms, for `COc1cccc(C(=O)c2c(-c3ccccc3)ncc3cc(OC)c(OC)cc23)c1` the value was 19.4 µM; for `c1ccc(-c2cnn3c(-c4ccccc4)c(-c4ccccc4)nc3n2)cc1`, 2.58 µM; for `O=C(N/N=C\c1c(O)ccc2ccccc12)c1ccc(S(=O)(=O)N2CCCCC2)cc1`, 19.2 µM.

For the compound `Cc1ccc(C(=O)N/C(=C/c2ccc(-c3ccc([N+](=O)[O-])cc3)o2)C(=O)NCCCN(C)C)cc1`, the AC40 is 5.7 µM. Still for that read-out and setting: for `Nc1c(C(=O)c2ccccc2)sc2nsc(SCCN3CCCC3)c12` the value was 10.5 µM; for `Nc1c(C(=O)Nc2ccc(S(=O)(=O)N3CCCC3)cc2)sc2nc3cc4c(cc3cc12)CCC4`, 10.6 µM; for `CC(NC(=O)/C(C#N)=C/c1ccc([N+](=O)[O-])o1)c1ccccc1` (stereo not given), > 19.5 µM (inactive). Still for that read-out and setting: for `CCN1/C(=C\c2ccc3ccccc3[n+]2CC)Sc2cc(C)ccc21` the value was 0.582 µM; for `CCCCCC[n+]1ccccc1/C=C/c1ccc(N(C)C)cc1`, > 19.5 µM (inactive).

For the compound `CC1CN(C(=O)/C=C/c2ccc([N+](=O)[O-])s2)CC(C)O1` (stereo not given), the AC40 was 10.6 µM. As to `CC(C)(C)NC(=S)N/N=C\c1ccc(-c2ccc([N+](=O)[O-])cc2)o1`, the AC40 was 7.84 µM.

Regarding `CCC(CO)[n+]1c(C)cc(/C=C2\Sc3ccccc3N2Cc2ccccc2)cc1C` (stereo not given), the AC40 was 7.28 µM. `NC(=O)c1c(NC(=O)c2ccccc2)sc2c1CCN(Cc1ccccc1)C2`: the AC40 was > 19.5 µM (inactive). Still for that read-out and setting: for `C/C(CC(=O)Nc1ccc(C)c(Cl)c1)=N\NC(=O)Cc1ccccc1` the value was 18.1 µM; for `C[C@@H]1CCCCO[C@H](CN(C)C(=O)Nc2ccc(C(F)(F)F)cc2)[C@H](C)CN([C@H](C)CO)C(=O)c2cc(NC(=O)CCC(F)(F)F)ccc2O1`, 17.4 µM. The same measure, in the same setting: for `CCN1/C(=C/c2ccc3cc(C)cc(C)c3[n+]2CC)Sc2cc(C)ccc21` the value was 10.4 µM; for `CCCCN(C)C1=CC2=CC(=C(C#N)C#N)CCC2CC1` (stereo not given), 3.44 µM; for `Cc1n[nH]c(=S)n1/N=C/c1ccc(-c2ccc(Cl)cc2)o1`, > 19.5 µM (inactive). Still for that read-out and setting: with `COc1ccc(N2CCN(C(=O)c3cc4c(s3)-c3ccccc3OC4)CC2)cc1` the figure was > 19.5 µM (inactive); with `CCN1CCc2c(sc(NC(=O)c3ccc(S(=O)(=O)N(CC)c4ccccc4)cc3)c2C(N)=O)C1`, 6.59 µM. With `COc1cc(N2CCCC2)c(OC)cc1/C=C1/NC(=S)NC1=O`, the AC40 is > 19.5 µM (inactive). As for `CCN1CCc2c(sc(NC(=O)Nc3ccc(Cl)c(Cl)c3)c2C(N)=O)C1`, the AC40 was 0.558 µM.

For the compound `CCCN1C(=O)S/C(=C\c2ccc(N3CCOCC3)o2)C1=O`, the AC40 was > 19.5 µM (inactive). Still for that read-out and setting: for `Cc1ccc(NC(=O)/C=C/c2ccc([N+](=O)[O-])s2)c(C)c1` the value was 7.81 µM. Same read-out and setting: with `N#Cc1c(-c2ccccc2F)cc(C2CC2)nc1SCC(=O)c1cccs1` the figure was 9.82 µM. As for `CC(C)CCN1C(=O)c2cccc3c(N)ccc(c23)C1=O`, the AC40 was 5.86 µM. Same read-out and setting: for `Cc1cc(C)cc(NC(=O)/C=C/c2ccc([N+](=O)[O-])s2)c1` the value was 9.04 µM.

For the compound `O=S(=O)(Nc1cc2nc3ccccc3nc2n1Cc1ccccc1)c1ccc(Cl)cc1`, the AC40 was > 19.5 µM (inactive). With `CN(C)c1ccc(/C=C(/C#N)C(=O)NCc2ccccc2)o1`, the AC40 is 14.7 µM. On the same count and under the same terms, with `Cc1ccc(-c2cn3nc(-c4ccccc4)c(-c4ccccc4)nc3n2)cc1` the figure was 7.88 µM; with `Cc1ccc(Cl)c2c(N=Nc3ccccc3)c(O)[nH]c12`, > 19.5 µM (inactive); with `COc1ccc(/C=C/C(=O)c2ccc([N+](=O)[O-])o2)cc1OC`, > 19.5 µM (inactive). On to `COc1ccc(-[n+]2c(C)cc(/C=C3\Sc4ccccc4N3C)cc2C)cc1`, for which the AC40 was 1.58 µM. The same measure, in the same setting: for `CCN1/C(=C/c2ccc3cc(C)ccc3[n+]2CC)Sc2ccccc21` the value was 0.395 µM; for `O=C(NC1CCCC1)c1cccc2c1C(=O)c1ccc(/C=C/c3ccccc3)cc1S2(=O)=O`, > 19.5 µM (inactive). Turning to `CC[n+]1c(/C=C/C=C/N(C(C)=O)c2ccccc2)sc2cc(OC)ccc21`, the AC40 is 2.73 µM. Still for that read-out and setting: for `COc1cc2c3nnc(-c4ccc(F)cc4)c-3cn(Cc3ccccc3)c2cc1OC` the value was 3.67 µM; for `CCN(CC)c1ccc(/C=C/c2cc(-c3ccccc3)c3ccccc3n2)cc1`, 12.8 µM. `O=[N+]([O-])c1ccc(N/N=C/c2sc(N3CCOCC3)nc2-c2ccccc2)c(S(=O)(=O)Nc2ccc(Cl)cc2)c1`: the AC40 was > 6.8 µM (inactive). The same measure, in the same setting: for `COc1ccc2c(n1)Sc1nc3ccccc3nc1N2` the value was 12.5 µM. For `Cc1cc2oc3ccc(NCCCn4ccnc4)cc3c(=O)c2cc1C`, the AC40 was 19.2 µM. With `Cc1c2c(cc3c1[nH]c1ccccc13)C=NCC2`, the AC40 was 15.8 µM.

With `COC1=CC(=O)c2c(ccc3ncnc(N)c23)C1=O`, the AC40 is > 19.5 µM (inactive). The same measure, in the same setting: for `N#Cc1ccccc1Cn1cc(/C=N/Nc2ccc([N+](=O)[O-])cn2)c2ccccc21` the value was 16.1 µM.

As for `N#C/C(=C/c1ccc(-c2ccc(S(N)(=O)=O)cc2)o1)c1nc2ccccc2s1`, the AC40 is 2.25 µM. The same measure, in the same setting: for `Cn1c(=O)[nH]c(=O)c2c1nc(SCCN1CCOCC1)n2CCCc1ccccc1` the value was 10.9 µM.
